Results on two compounds are retold here after US20220193272A1, “Bleeding Detection Method” (Ethicon, Inc., priority 2020, published 2022).

Molecules are shown by their SMILES. Entries after “also recorded” stand apart in the source; their conditions may differ. Peptide text beside a SMILES is read from it. * marks the point of attachment. AMC = Cc1cc(=O)oc2cc(N*)ccc12; Bz = O=C(c1ccccc1)*

The target in assay [1] is T1, thrombin (Homo sapiens, UniProt P00734).
T1 construct: purchased EVICEL® fibrin sealant kit product code 3905
Kind of assay: Detection of thrombin in solution with fluorescent substrates. The class given is biochemical. Here is the method:
1. 2 mL of 0, 10 IU/mL and 100 IU/mL thrombin in saline (none, low, and high thrombin) was prepared in duplicates and tubes were labeled accordingly. Stock of EVICEL® thrombin is about 1000 IU/mL.
2. A defined amount of thrombin substrate was added to thrombin solutions as follows and fluorescence of the mixture was evaluated. The substrate stock solutions were diluted 1:10 in Tris Buffered saline (TBS) buffer (180 uL TBS and 20 uL of stock substrate solution). TBS buffer comprises 20 mM Tris and 150 mM sodium chloride, and is adjusted to pH 7.4. 0.05 mL of the diluted stock solution (1:10 dilution) was added to the 2 mL of thrombin prepared in step 1, mixed at room temperature, and incubated for about 3 mins.
3. Images of tubes were captured while shining with light (using various light emitting sources) and responses were compared for different amounts of thrombin.

Assay [2] concerns the target T1, thrombin. Kind of assay: Detection of thrombin in solution, repeated with higher amounts of substrate. The class given is biochemical. The arrangement: key to fluorescence signal, relative rank: +++: strongest fluorescence signal; ++: signal was greater; +: fluorescence signal was lowest. The settings on record: 100 uL at 5 mg/mL in DMSO [500 ug total substrate], 100 IU/mL thrombin, approx. 5 min. Here is the method:
100 IU/mL of thrombin was used.
To 1.0 mL of 100 IU/mL thrombin in saline, 100 uL of Sigma substrate at 5 mg/mL in DMSO was added [500 ug total substrate].
To 1.0 mL of 100 IU/mL thrombin in saline, 100 uL of HTI substrate diluted in TBS at 0.25 mg/mL (50 uL HTI manufacture's stock and 1.5 mL TBS, i.e. 1:30 dilution) was added [25 ug total substrate].
To 1.0 mL of 100 IU/mL thrombin in saline, 10 uL of HTI manufacture's stock (7.5 mg/mL in DMSO) was added [75 ug total substrate]
Images of tubes were captured under various lighting conditions (using various light sources) and responses were compared.
The experiments were carried out at room temperature.

For assay [3], the target named is T1, thrombin. Briefly: Detection of thrombin on a surface (cellulose matrix) with fluorogenic substrates. The class given is biochemical. The settings on record: approx. 60 min after spraying; 365 nm flashlight only; after moving the matrix out of its original position. Here is the method: 2 mL solutions of 0, 10 IU/mL and 100 IU/mL thrombin in saline (none, and low and high thrombin) were prepared using a stock solution of EVICEL® thrombin of about 1000 IU/mL. 1 mL of each thrombin dilution was sprayed onto white cellulose matrix (paper towel Scott C-Fold) in a designated area.
Immediately a defined amount of thrombin substrate, prepared as follows, was sprayed on the thrombin and coated cellulose matrix and fluorescence of the mixture was evaluated. The substrate stock solutions were diluted 1:10 in TBS (using 900 uL TBS and 100 uL of stock substrate solution). 1.0 mL of the diluted stock solution (1:10 dilution) was sprayed across all three regions of the cellulose matrix coated with thrombin at different levels.
Images of cellulose matrix under various lighting conditions (with various light sources) were captured and the response was compared for different amounts of thrombin and substrates. The Experiments were carried out at room temperature.

Assay [4] addresses T1, thrombin. Briefly: Detection of thrombin generated in plasma with fluorogenic substrates. The class given is biochemical. Here is the method:
(§1) Pooled normal plasma (PNP) was purchased from George King Biomedical was thawed at 37 C for 5 min. 0.5 mL of PNP was aliquoted into 3-10×75 mm borosilicate glass tubes. To each to glass tube, 0.10 mL stock fluorescent substrate or 0.10 mL stock TBS was added. Tubes were labeled accordingly.
(§2) 1.0 mL of PT reagent (Diagnostica Stago, STA Neoplastine Cl Plus containing calcium) was dispensed into the three tubes.
Images of tubes were captured while using shining light (using various light sources) and response was compared for different substrates.

Assay [5] relates to pooled normal plasma. Briefly: Clotting of pooled normal plasma with PT reagent in presence of substrate. The class given is biochemical. The settings on record: 0.5 mL PNP + 0.10 mL stock (5 mg/mL in DMSO) + 1.0 mL PT reagent; room temperature. The protocol:
as §1, §2
The blank/TBS control clotted in approx. 10 sec (as expected for a PT clotting time).

Assay [6] relates to thrombin. Briefly: In vivo detection of thrombin at bleeding site, canine model with liver and spleen abrasions. The protocol: In this in vivo study, the ability to detect thrombin on a surface in a live animal after creating a bleeding defect was assessed in a canine model with liver and spleen abrasions.
Diffuse/oozing bleeding abrasion defect was created using cautery tip cleaning pad.
0.5 mL of Sigma fluorogenic substrate (Stock solution 5 mg/mL concentration in DMSO protected from light) was sprayed onto bleeding site and visualized with flashlight (356 nm) 2-3 min after application.

The target of assay [7] is T1, thrombin. Kind of assay: Detection of thrombin activity on chromogenic substrate coated onto cellulose matrix. The class given is biochemical. The settings on record: 1 mL of 2 mg/mL substrate sprayed on matrix; EVICEL thrombin applied; 30 sec at room temperature; dihydrochloride. Here is the method:
S-2238 chromogenic thrombin substrate ((H-D-Phenylalanyl-L-pipecolyl-L-arginine-p-nitroaniline dihydrochloride) which is available from Chromgenix, Instrumentation Laboratory Company, Bedford, Mass., USA catalog number: 82032439), 25 mg, was dissolved in 12.5 mL of water. The resulting concentration was 2 mg/mL (25 mg in 12.5 mL). 1 mL of 2 mg/mL of the chromogenic substrate was sprayed onto one side of a white cellulose matrix (paper towel Scott C-Fold) approx. 4 in×6 cm in using the EVICEL® ASA tip (product code 3921S). The other side was not coated or sprayed with the substrate.
A kit of EVICEL® (product code 3905) was thawed in a 37° C. water bath for 5 min. […] This was repeated on the substrate coated side and also applied in duplicate on the non-substrate coated side.
As a control, thrombin was applied to the non-coated side of the matrix and no color changed was observed.

For assay [8], the target named is T1, thrombin. Briefly: Thrombin activity on chromogenic substrate in solution (dip stick standard tubes). The settings on record: 0.2 mL of 2 mg/mL substrate + 1.8 mL water, about 2 min at room temperature. The class given is biochemical. Here is the method:
A “dip stick” can be dabbed onto a tissue surface that is suspected of bleeding (FIG. 2). The end of the dip stick can then be placed into a solution containing the visualization agent (chromogenic substrate). The amount of the thrombin present in the dip stick is determined by comparison with a standard curve obtained by running similar tests with known thrombin concentrations.
For example, 0.2 mL of the 2 mg/mL chromogenic substrate was combined with 1.8 mL of water in a […] in 2 borosilicate glass tubes. The solution was gently mixed to distribute the substrate. A third tube was filled with 2 mL of water as an untreated control. To one of the tubes with the diluted substrate, 100 uL of 1000 IU/mL thrombin was added and 10 uL was added to the other tube. After about 2 min at room temperature, a photo was captured of the tubes.
The tube with water is shown as a reference. The intensity of the color change reflected the amount of thrombin.

The target of assay [9] is T1, thrombin. Kind of assay: Detection of chromogenic substrate product in plasma activated by thromboplastin reagent. The settings on record: 0.4 mL PNP + 0.2 mL thromboplastin reagent with calcium + 0.2 mL of 2 mg/mL substrate; room temperature. The class given is biochemical. The protocol: Plasma has a background color (straw color). To test whether the product of the chromogenic substrate can be detected in plasma, 0.4 mL pooled normal plasma (PNP from George King Biomedical) was activated by a thromboplastin reagent (0.2 mL, Neoplastin CL plus product number 00375) with calcium to allow thrombin generation.
Either 0.2 mL saline (as a control) or 0.2 mL of 2 mg/mL of the chromogenic substrate was added to the tube and mixed on the tube rocker.
Evidence of clot formation was present after approx. 30 sec at room temperature. In view of the presence of fibrinogen in plasma, complete clot formation, i.e. solid/stable clot, occurred at approx. 2 min at room temperature.

On to `Cc1cc(=O)oc2cc(NC(=O)[C@H](CCCN=C(N)N)NC(=O)[C@@H](NC(=O)[C@H](Cc3ccccc3)NC(=O)c3ccccc3)C(C)C)ccc12` [Sigma substrate] (Bz-Phe-Val-Arg-{AMC}), for which the “time within which all of the substrate was cleaved” value in [1] (100 IU/mL thrombin, no change in intensity between 3 min and 60 min) is not above 3 min. Moreover, the fluorescence entry was “displaying fluorescence” in assay [1] (approx. 3 min, ambient overhead lighting and 365 nm flashlight, 100 IU/mL thrombin); “displaying fluorescence” in assay [1] (approx. 60 min, 365 nm flashlight only, 100 IU/mL thrombin). For the same compound, the color change result in assay [1] (approx. 3 min, ambient overhead lighting only, thrombin 100, 10 and 0 IU/mL) was “no color change observed”. Moreover, the “fluorescence signal, relative rank” value in assay [2] (365 nm flashlight only) is reported as “+++”. Further, in [2] (ambient overhead lighting and 365 nm flashlight), the fluorescence signal result was “strongest”. For the same compound, in assay [3], the “fluorescence on the surface underneath the cellulose matrix” value was “spots of fluorescence could be seen”. For the same compound, the “color change in plasma” value in [4] (5 min after combining PNP, substrate and PT reagent, ambient overhead lighting only) is given as “no color change was observed”. Moreover, in assay [4] (approx. 5 min, 365 nm flashlight only, 0.10 mL stock (Sigma 5 mg/mL in DMSO; HTI 0.25 mg/mL in TBS)), the “fluorescence signal in plasma” value is “strong fluorescence signal”. The fluorescence in plasma result in [4] (approx. 5 min, ambient overhead lighting and 365 nm flashlight, 0.10 mL stock (Sigma 5 mg/mL in DMSO)) is given as “strong fluorescence”. The “time sample remained fluid before clotting” value in assay [5] is “approx. 3 min”. In addition, the “fluorescence signal at bleeding site” value in [6] (0.5 mL of 5 mg/mL in DMSO sprayed onto bleeding site, flashlight (356 nm) 2-3 min after application, no exogenous thrombin added) is reported as “could be detected”. Besides, the “detection of bleeding in a liver abrasion model” value in assay [6] (canine, sprayed onto bleeding site) is reported as “enabled detection of bleeding”.
Take `Cl.Cl.NC(N)=NCCC[C@H](NC(=O)[C@@H]1CCCCN1C(=O)[C@H](N)Cc1ccccc1)C(=O)Nc1ccc([N+](=O)[O-])cc1` [S-2238, H-D-Phenylalanyl-L-pipecolyl-L-arginine-p-nitroaniline dihydrochloride]: in assay [7], the “coloration on substrate coated side of cellulose matrix” value was “yellow coloration (dark streaks) was evident; also recorded: change in coloration was evident”. The results for the coloration of tube result in assay [8] (10 uL of 1000 IU/mL thrombin) and in [8] (100 uL of 1000 IU/mL thrombin) were “faint yellow coloration” and “yellow coloration”, respectively. In assay [9], the “yellow coloration/hue of clotted plasma compared with the saline control” value is on record as “significantly stronger”.
